The values that follow are results of earlier work, collected in patent US20100068203A1, “17-Oxymacbecin Derivatives and Their Use in the Treatment of Cancer and/or B-Cell Malignancies” (priority 2006, published 2010).

Data set [1] relates to SKBr3. Particulars: compared with geldanamycin and 17-AAG.
For data set [2], the target named is Hsp90 (Homo sapiens, UniProt P07900).
The subject of data set [3] is protozoa.
The subject of data set [4] is bacteria and fungi. The conditions noted are these: in vitro.
The target of data set [5] is terminal deoxynucleotidyl transferase (Homo sapiens, UniProt P04053).
Chain of terminal deoxynucleotidyl transferase (P04053 whole entry, species assumed): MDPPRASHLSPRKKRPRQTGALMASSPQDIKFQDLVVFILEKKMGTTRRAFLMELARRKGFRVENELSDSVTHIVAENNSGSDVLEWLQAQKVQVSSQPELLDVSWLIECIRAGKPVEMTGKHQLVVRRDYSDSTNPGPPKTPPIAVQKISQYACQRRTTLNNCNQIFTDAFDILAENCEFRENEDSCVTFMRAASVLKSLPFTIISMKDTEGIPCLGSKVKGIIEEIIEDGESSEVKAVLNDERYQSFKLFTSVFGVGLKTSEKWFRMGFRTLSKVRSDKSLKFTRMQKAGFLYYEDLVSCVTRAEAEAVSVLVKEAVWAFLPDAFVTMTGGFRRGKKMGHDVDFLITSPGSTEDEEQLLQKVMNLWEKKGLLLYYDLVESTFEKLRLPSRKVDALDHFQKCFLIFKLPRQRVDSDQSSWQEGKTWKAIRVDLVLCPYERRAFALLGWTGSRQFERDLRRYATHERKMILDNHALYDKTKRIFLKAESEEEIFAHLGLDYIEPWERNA
The subject of data set [6] is Reverse transcriptase.

Consider `CO[C@H]1C[C@H](C)Cc2cc(O)cc(c2)NC(=O)/C=C/CC[C@H](OC)[C@@H](OC(N)=O)/C(C)=C/[C@H](C)[C@H]1O` [KOSN1559], for which the “IC50 measurement using SKBr3” value in data set [1] is on record as “not reflected in an improvement”. Further, the “binding affinity to Hsp90, greater than 17-AAG” value in data set [2] (relative to 17-AAG) is on record as 8 fold. Further, the “binding affinity to Hsp90, greater than geldanamycin” value in data set [2] (relative to geldanamycin) is on record as 4 fold.
Regarding `COC1=C2C[C@@H](C)C[C@H](OC)[C@H](O)[C@@H](C)/C=C(\C)[C@H](OC(N)=O)[C@@H](OC)/C=C\C=C(/C)C(=O)NC(=CC1=O)C2=O` [geldanamycin], the “activity in vitro against protozoa” value in data set [3] is on record as “strong activity”. Moreover, in data set [4], the “activity against bacteria and fungi” value was “weak activity”.
In the case of `CO[C@H]1[C@@H](OC)C[C@H](C)[C@@H](OC)C2=CC(=O)C=C(NC(=O)/C(C)=C/C=C\[C@H](C)[C@@H](OC(N)=O)/C(C)=C/[C@@H]1C)C2=O` [macbecin], the “terminal deoxynucleotidyl transferase activity inhibition” value in data set [5] was “not inhibited”. Also, in data set [6], the “Reverse transcriptase activity inhibition” value is “not inhibited”.
